In ChEMBL document CHEMBL1157222, “Anxiolytic effect of natural galphimines from Galphimia glauca and their chemical derivatives” (2006) one finds Activity data, which are given here for five compounds.

Calls of active or inactive are those of the source. The rule behind the calls is not given here.

Assay [1] concerns Mus musculus. Briefly: Anxiolytic effect in ICR mouse assessed as increase in number of entries on open arm at 15 mg/kg, ip administered 1 hr before by elevated plus-maze test. The assay is classed as functional. As to conditions: route intraperitoneal.
For assay [2], the system named is Mus musculus. Briefly: Anxiolytic effect in ICR mouse assessed as increase in time spent on open arm at 15 mg/kg, ip administered 1 hr before by elevated plus-maze test. The class given is functional. As to conditions: route intraperitoneal.
The test system of assay [3] is Mus musculus. Description: Anxiolytic effect in ICR mouse assessed as […] in time spent on open arm at 2.0 mg/kg, ip administered 1 hr before by elevated plus-maze test. The assay is classed as functional, organism-based. More on the design: dose 2 mg/kg.
In assay [4] the test system is Mus musculus. Briefly: Anxiolytic effect in ICR mouse assessed as […] in entries of open arm at 2.0 mg/kg, ip administered 1 hr before by elevated plus-maze test. The assay is classed as functional, organism-based. Also noted: dose 2 mg/kg.
The subject of assay [5] is Mus musculus. Briefly: Anxiolytic effect in ICR mouse assessed as increase in time spent on open arm at 1.0 mg/kg, ip administered 1 hr before by elevated plus-maze test. More on the design: dose 1 mg/kg. The assay is classed as functional, organism-based.
The subject of assay [6] is Mus musculus. Briefly: Anxiolytic effect in ICR mouse assessed as increase in entries of open arm at 1.0 mg/kg, ip administered 1 hr before by elevated plus-maze test. The class given is functional, organism-based. Also noted: dose 1 mg/kg.

With `COC(=O)[C@@]12CC[C@@]3(C)[C@@H]4C=CC(=O)OC[C@]4([C@@H](C)O)C[C@@H](O)[C@@H]3[C@@]1(C)CC[C@@]1(C)CC=C(C)C[C@]12O` [GALPHIMINE B], the Activity came out at 72.5% in the assay with Mus musculus [1] and 76.3% in the assay on Mus musculus [2].

Consider `COC(=O)CC[C@H]1[C@]2(C)CC[C@@]3(C(=O)OC)[C@]4(O)CC(C)=CC[C@]4(C)CC[C@]3(C)[C@H]2[C@H](O)[C@H](O)[C@]1(CO)[C@@H](C)O`, for which the figures for the Activity in the assay on Mus musculus [1] and in the assay on Mus musculus [2] were 61.8% and 76.8%, respectively.

For `C=C(C)[C@@H]1[C@H]2OC(=O)[C@@H]1[C@]1(O)C[C@H]3OC34C(=O)O[C@H]2[C@@]41C.CC(C)(O)[C@@H]1[C@H]2OC(=O)[C@@H]1[C@]1(O)C[C@H]3OC34C(=O)O[C@H]2[C@@]41C` (stereo not given in full), the result in the assay on Mus musculus [3] and in the assay with Mus musculus [4] was Active.

Turning to `COC(=O)[C@@]12CC[C@@]3(C)[C@@H]4C=CC(=O)OC[C@]4([C@@H](C)O)[C@@H](O)[C@@H](O)[C@@H]3[C@@]1(C)CC[C@@]1(C)CC=C(C)C[C@]12O` [GALPHIMINE A], the Activity in the assay with Mus musculus [1] came to 76.8%; in the assay with Mus musculus [2], 68.3%.

As to `CN1C(=O)CN=C(c2ccccc2)c2cc(Cl)ccc21`, the outcome in the assay on Mus musculus [5] and in the assay with Mus musculus [6] was Active.
